Experimental data reported in patent US20080280933A1, “BENZIMIDAZOLYL COMPOUNDS” (priority 2006, published 2008).

Molecular target: T1, mGluR2 receptor (metabotropic glutamate receptor 2) (Homo sapiens, UniProt Q14416)
T1 construct: expressed in transfected cells
Test: mGluR2 Potentiator Screen, FLIPR, EC10-EC20 glutamate challenge
Format: cell-based
Settings: read-out: EC50
Outline: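 HEK cells stably co-expressing mGluR2 and Gα15, kept glutamine-free overnight, were loaded with Fluo-4 plus probenecid and GPT/pyruvate. Compounds (top 10 μM) were added ≥30 min before an EC10–EC20 glutamate challenge. Peak FLIPR fluorescence ratios were curve-fitted, excluding points above maximal effect, with maxima from on-plate standards.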

T1 sequence (Q14416 19-872, species assumed): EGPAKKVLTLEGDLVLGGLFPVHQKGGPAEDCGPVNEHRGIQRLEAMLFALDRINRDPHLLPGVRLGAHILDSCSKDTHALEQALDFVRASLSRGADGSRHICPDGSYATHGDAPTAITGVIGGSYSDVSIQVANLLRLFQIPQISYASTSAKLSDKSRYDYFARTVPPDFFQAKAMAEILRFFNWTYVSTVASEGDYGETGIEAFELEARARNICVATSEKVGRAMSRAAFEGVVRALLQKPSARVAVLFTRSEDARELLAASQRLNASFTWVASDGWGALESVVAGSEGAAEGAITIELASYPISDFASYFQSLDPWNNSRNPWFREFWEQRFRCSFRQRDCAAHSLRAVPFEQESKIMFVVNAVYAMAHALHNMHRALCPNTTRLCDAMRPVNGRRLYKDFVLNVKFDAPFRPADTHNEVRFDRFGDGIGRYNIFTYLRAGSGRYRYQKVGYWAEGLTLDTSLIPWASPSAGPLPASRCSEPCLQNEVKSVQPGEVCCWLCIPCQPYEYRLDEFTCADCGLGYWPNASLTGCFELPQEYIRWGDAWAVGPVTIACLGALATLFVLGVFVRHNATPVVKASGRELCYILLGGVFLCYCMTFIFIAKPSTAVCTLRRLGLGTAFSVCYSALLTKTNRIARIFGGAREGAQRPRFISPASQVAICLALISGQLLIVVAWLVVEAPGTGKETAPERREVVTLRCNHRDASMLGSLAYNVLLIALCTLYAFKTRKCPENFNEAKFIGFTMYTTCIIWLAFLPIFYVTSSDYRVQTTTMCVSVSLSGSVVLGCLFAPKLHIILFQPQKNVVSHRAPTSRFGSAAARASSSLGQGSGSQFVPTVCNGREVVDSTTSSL

SMILES | EC50 [µM]
CCOc1ccc(Cl)cc1C1CCN(Cc2nc3ccccc3n2CCOC)CC1 [compound 228] | 0.185
COc1ccc(Cl)cc1C1CCN(Cc2nc3ccccc3n2C2CC2)CC1 [compound 229] | 0.357
COCCn1c(CN2CCC(c3cc(Cl)ccc3OC)CC2)nc2ccccc21 [compound 230] | 0.209
COc1ccc(Cl)cc1C1CCN(Cc2nc3ccccc3n2C)CC1 [compound 231] | 0.115
COc1ccc(Cl)cc1C1CCN(Cc2nc3ccccc3n2CF)CC1 [compound 232] | 0.396
COc1ccc(Cl)cc1C1CCN(Cc2nc3ccccc3n2CCF)CC1 [compound 233] | 0.264
COc1ccc(Cl)cc1C1CCN(Cc2nc3c(Br)cccc3n2C)CC1 [compound 234] | 1.31
C#CCOc1ccc(Cl)cc1C1CCN(Cc2nc3ccccc3n2C2CC2)CC1 [compound 235] | 0.258
C#CCOc1ccc(Cl)cc1C1CCN(Cc2nc3ccccc3n2CCF)CC1 [compound 236] | 0.0741
C#CCOc1ccc(Cl)cc1C1CCN(Cc2nc3ccccc3n2CF)CC1 [compound 237] | 0.302
C#CCOc1ccc(Cl)cc1C1CCN(Cc2nc3ccccc3n2C)CC1 [compound 238] | 0.0781
C#CCOc1ccc(Cl)cc1C1CCN(Cc2nc3ccccc3n2CCOC)CC1 [compound 239] | 0.079
COc1ccccc1C1CCN(Cc2nc3ccccc3n2CCF)CC1 [compound 240] | 0.146
FCCn1c(CN2CCC(c3ccccc3F)CC2)nc2ccccc21 [compound 241] | 0.217
FCCn1c(CN2CCC(c3ccc(C(F)(F)F)cc3)CC2)nc2ccccc21 [compound 242] | 0.301
FCCn1c(CN2CCC(c3ccccc3C(F)(F)F)CC2)nc2ccccc21 [compound 243] | 1.26
COc1ccccc1C1CCN(Cc2nc3ccccc3n2C2CC2)CC1 [compound 244] | 0.484
FC(F)(F)c1ccccc1C1CCN(Cc2nc3ccccc3n2C2CC2)CC1 [compound 245] | 3.35
COCCn1c(CN2CCC(c3ccc(C(F)(F)F)cc3)CC2)nc2ccccc21 [compound 246] | 0.418
FC(F)(F)c1ccc(C2CCN(Cc3nc4ccccc4n3C3CC3)CC2)cc1 [compound 247] | 0.821
COCCn1c(CN2CCC(c3ccccc3OC)CC2)nc2ccccc21 [compound 248] | 0.32
COCCn1c(CN2CCC(c3ccccc3F)CC2)nc2ccccc21 [compound 249] | 0.251
COCCn1c(CN2CCC(c3ccccc3C(F)(F)F)CC2)nc2ccccc21 [compound 250] | 0.545

SMILES | EC50 [µM]
Fc1ccccc1C1CCN(Cc2nc3ccccc3n2C2CC2)CC1 [compound 251] | 1.34
FCn1c(CN2CCC(c3ccccc3F)CC2)nc2ccccc21 [compound 252] | 0.225
FCn1c(CN2CCC(c3ccccc3F)CC2)nc2ccccc21 [compound 253] | 0.116
COc1ccccc1C1CCN(Cc2nc3ccccc3n2CF)CC1 [compound 254] | 0.0624
FCn1c(CN2CCC(c3ccc(C(F)(F)F)cc3)CC2)nc2ccccc21 [compound 255] | 0.164
FCn1c(CN2CCC(c3ccccc3C(F)(F)F)CC2)nc2ccccc21 [compound 256] | 0.422
Cn1c(CN2CCC(c3ccccc3C(F)(F)F)CC2)nc2ccccc21 [compound 257] | 0.109
COc1ccccc1C1CCN(Cc2nc3cc(F)c(F)cc3n2C)CC1 [compound 258] | 0.0805
Cn1c(CN2CCC(c3ccccc3F)CC2)nc2cc(F)c(F)cc21 [compound 259] | 0.468
Cn1c(CN2CCC(c3ccc(C(F)(F)F)cc3)CC2)nc2cc(F)c(F)cc21 [compound 260] | 0.422
Cn1c(CN2CCC(c3ccccc3C(F)(F)F)CC2)nc2cc(F)c(F)cc21 [compound 261] | 2.31
Cn1c(CN2CCC3(CC2)COc2ccccc23)nc2ccccc21 [compound 262] | 1.17
COc1ccccc1C1CCN(Cc2nc3cc(Br)ccc3n2C)CC1 [compound 263] | 0.242
Cn1c(CN2CCC(c3ccccc3O)CC2)nc2ccccc21 [compound 265] | 1.44
COc1ccccc1C1CCN(Cc2nc3c(C#N)cccc3n2C)CC1 [compound 266] | 3.35
Cc1cccc2c1nc(CN1CCC(c3ccccc3F)CC1)n2C [compound 267] | 0.249
Cn1c(CN2CCC(c3ccccc3F)CC2)nc2c(C#N)cccc21 [compound 268] | 1.71
Cn1c(CN2CCC(c3ccccc3F)CC2)nc2cc(Br)ccc21 [compound 269] | 0.445
COc1ccccc1C1CCN(Cc2nc3c(Cl)cccc3n2C)CC1 [compound 270] | 0.838
COc1ccccc1C1CCN(Cc2nc3c(F)cccc3n2C)CC1 [compound 271] | 0.0211
Cc1ccc2c(c1)nc(CN1CCC(c3ccccc3F)CC1)n2C [compound 273] | 0.0797
Cn1c(CN2CCC(c3ccccc3F)CC2)nc2ccc(Br)cc21 [compound 274] | 0.318
COc1ccc(-c2ccc3nc(CN4CCC(c5ccccc5F)CC4)n(C)c3c2)cn1 [compound 277] | 0.0446

SMILES | EC50 [µM]
Cn1c(CN2CCC(c3ccccc3F)CC2)nc2cc(-c3ccccc3)ccc21 [compound 280] | 0.176
COc1ccccc1C1CCN(Cc2nc3cc(N)ccc3n2C)CC1 [compound 281] | 1.51
COc1ccccc1C1CCN(Cc2nc3cc(C)ccc3n2C)CC1 [compound 282] | 0.0416
COc1ccccc1C1CCN(Cc2nc3cc(C#N)ccc3n2C)CC1 [compound 283] | 0.0908
COc1ccccc1C1CCN(Cc2nc3cc(F)ccc3n2C)CC1 [compound 284] | 0.0394
COc1ccccc1C1CCN(Cc2nc3cc(Cl)ccc3n2C)CC1 [compound 285] | 0.0493
COCn1c(CN2CCC(c3ccccc3F)CC2)nc2ccccc21 [compound 286] | 4.62
COCn1c(CN2CCC(c3ccc(C(F)(F)F)cc3)CC2)nc2ccccc21 [compound 287] | 1.9
Cn1c(CN2CCC(c3ccccc3)CCC2=O)nc2ccccc21 (stereo not drawn) [compound 289] | > 9.88
Cn1c(CN2CCC(c3ccc(C(F)(F)F)cc3)CCC2=O)nc2ccccc21 (stereo not drawn) [compound 290] | 5.72
COc1ccccc1C1CCN(Cc2nc3ccccc3n2C)CC1C (stereo not drawn) [compound 292] | 0.143
COc1ccccc1C1CCN(Cc2nc3cc(F)c(F)cc3n2C)CC1C (stereo not drawn) [compound 293] | 0.85
COc1ccccc1C1CCN(Cc2nc3ccccc3n2CF)CC1C (stereo not drawn) [compound 294] | 0.734
OCCn1c(CN2CCC(c3ccccc3F)CC2)nc2ccccc21 [compound 295] | 1.74
Cn1c(CN2CC[C@@H]3c4c(Br)ccc(Cl)c4CC[C@H]3C2)nc2ccccc21 [compound 299] | 6.12
COc1ccc(F)cc1C1CCN(Cc2nc3ccccc3n2C)CC1 [compound 300] | 0.0607
Cc1cccc2nc(CN3CCC(c4ccccc4F)CC3)n(C)c12 [compound 301] | 0.0423
Cc1cc(C)cc(C2CCN(Cc3nc4ccccc4n3C)CC2)c1 [compound 302] | 0.0374
Cn1c(CN2CCCC(c3ccc(C(F)(F)F)cc3)CC2)nc2ccccc21 (stereo not drawn) [compound 303] | 0.868
COc1ccccc1C1CCCN(Cc2nc3ccccc3n2C)CC1 (stereo not drawn) [compound 304] | 0.276
Cn1c(CN2CCCC(c3ccccc3)CC2)nc2ccccc21 (stereo not drawn) [compound 305] | 0.235
Cn1c(CN2CCCC(c3ccccc3F)CC2)nc2ccccc21 (stereo not drawn) [compound 306] | 1.59
Cn1c(CN2CCC(c3ccccc3F)CC2)nc2cccc(C#N)c21 [compound 307] | 0.0314

SMILES | EC50 [µM]
Cn1c(CN2CCC(c3ccccc3F)CC2)nc2cccc(-c3ccccc3)c21 [compound 308] | 0.151
COc1ccc(-c2cccc3nc(CN4CCC(c5ccccc5F)CC4)n(C)c23)cn1 [compound 309] | 0.112
Cc1cc(F)ccc1C1CCN(Cc2nc3ccccc3n2C)CC1 [compound 310] | 0.0433
Cn1c(CN2CCC(c3cc(F)ccc3F)CC2)nc2ccccc21 [compound 311] | 0.0161
Cn1c(CN2CCC(c3ccccc3F)CC2)nc2cccc(Br)c21 [compound 312] | 0.0601
CC(O)c1ccccc1C1CCN(Cc2nc3ccccc3n2C)CC1 (stereo not drawn) [compound 313] | 0.361
Cn1c(CN2CCC(c3ccc(C(F)(F)F)cc3)CC2)nc2c(F)cccc21 [compound 314] | 0.0438
Cc1ccc(C2CCN(Cc3nc4ccccc4n3C)CC2)cc1C [compound 315] | 0.308
Cn1c(CN2CCC(c3ccc(C(F)(F)F)cc3)CC2)nc2cc(C#N)ccc21 [compound 317] | 0.0907
COc1ccc(C(F)(F)F)cc1C1CCN(Cc2nc3ccccc3n2C2CC2)CC1 [compound 318] | 4.69
COc1ccc(C(F)(F)F)cc1C1CCN(Cc2nc3ccccc3n2CCF)CC1 [compound 319] | 1.65
COCn1c(CN2CCC(c3cc(C(F)(F)F)ccc3OC)CC2)nc2ccccc21 [compound 320] | 3.8
COc1ccc(C(F)(F)F)cc1C1CCN(Cc2nc3cc(F)c(F)cc3n2C)CC1 [compound 321] | 1.51
COc1ccccc1[C@]1(C)CCN(Cc2nc3ccccc3n2C2CC2)C[C@@H]1C [compound 322] | 9.93
COCCn1c(CN2CCC(c3cc(C(F)(F)F)ccc3OC)CC2)nc2ccccc21 [compound 323] | 0.984
COCCn1c(CN2CCC(c3cc(C(F)(F)F)ccc3F)CC2)nc2ccccc21 [compound 326] | 0.263
Fc1ccc(C(F)(F)F)cc1C1CCN(Cc2nc3ccccc3n2C2CC2)CC1 [compound 327] | 1.98
Cn1c(CN2CCC(c3cc(C(F)(F)F)ccc3F)CC2)nc2cc(F)c(F)cc21 [compound 328] | 0.463
FCCn1c(CN2CCC(c3cc(C(F)(F)F)ccc3F)CC2)nc2ccccc21 [compound 329] | 0.463
COCn1c(CN2CCC(c3cc(C(F)(F)F)ccc3F)CC2)nc2ccccc21 [compound 330] | 0.969
Cn1c(CN2CCC(c3ccc(F)cc3)CC2)nc2cc(C#N)ccc21 [compound 331] | 0.299
